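Exposure lasted 48 hours, with cells grown in 96-well plates and compounds tested at five concentrations. GI50 is the concentration that inhibits growth by half. Definition used: TGI = concentration required for complete inhibition of growth.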
What was measured:
Test in all cases: NCI-60 cell line screen, 48 h
[1] = tested on: MOLT-4 leukemia
[2] = tested on: RPMI-8226 leukemia
[3] = tested on: SK-OV-3 ovarian
[4] = tested on: SW-620 colon
[5] = tested on: LOX IMVI melanoma
[6] = tested on: U251 CNS
[7] = tested on: SF-268 CNS
[8] = tested on: IGROV1 ovarian
[9] = tested on: SK-MEL-2 melanoma
[10] = tested on: OVCAR-3 ovarian
[11] = tested on: KM12 colon
[12] = tested on: PC-3 prostate
[13] = tested on: HCT-116 colon
[14] = tested on: HCC-2998 colon
[15] = tested on: M14 melanoma
[16] = tested on: MDA-MB-231 breast
[17] = tested on: MALME-3M melanoma
[18] = tested on: TK-10 renal
[19] = tested on: SNB-19 CNS
[20] = tested on: EKVX NSCLC
[21] = tested on: HL-60(TB) leukemia
[22] = tested on: UO-31 renal
[23] = tested on: NCI-H460 lung
[24] = tested on: MCF7 breast
[25] = tested on: NCI-H522 lung
[26] = tested on: SR leukemia
[27] = tested on: A498 renal
[28] = tested on: A549 NSCLC
[29] = tested on: NCI-H23 lung
[30] = tested on: NCI-H226 lung
[31] = tested on: SNB-75 CNS
[32] = tested on: OVCAR-8 ovarian
[33] = tested on: SN12C renal
[34] = tested on: SK-MEL-5 melanoma
[35] = tested on: NCI/ADR-RES ovarian
[36] = tested on: 786-0 renal
[37] = tested on: UACC-62 melanoma
[38] = tested on: K-562 leukemia
[39] = tested on: T-47D breast
[40] = tested on: SK-MEL-28 melanoma
[41] = tested on: ACHN renal
[42] = tested on: SF-295 CNS
[43] = tested on: OVCAR-4 ovarian
[44] = tested on: CCRF-CEM leukemia
[45] = tested on: BT-549 breast
[46] = tested on: HOP-92 NSCLC
[47] = tested on: HS 578T breast
[48] = tested on: HOP-62 NSCLC
[49] = tested on: CAKI-1 renal
[50] = tested on: COLO 205 colon
[51] = tested on: UACC-257 melanoma
[52] = tested on: HT29 colon
[53] = tested on: MDA-MB-435
[54] = tested on: HCT-15 colon
[55] = tested on: SF-539 CNS
[56] = tested on: RXF 393 renal
[57] = tested on: DU-145 prostate
[58] = tested on: OVCAR-5 ovarian

Structure (SMILES): CC(C)[C@@H]1C=C2CC[C@H]3[C@](C)(CN)CCC[C@]3(C)[C@H]2CC1
- GI50 [1]: 2.35 µM
- TGI [1]: 6.03 µM
- GI50 [2]: 2.57 µM
- TGI [2]: 11.7 µM
- GI50 [3]: 13.2 µM
- TGI [3]: 26 µM
- GI50 [4]: 1.73 µM
- TGI [4]: 3.23 µM
- GI50 [5]: 1.52 µM
- TGI [5]: 2.85 µM
- GI50 [6]: 1.76 µM
- TGI [6]: 3.28 µM
- GI50 [7]: 7.27 µM
- TGI [7]: 20.7 µM
- GI50 [8]: 1.93 µM
- TGI [8]: 4.09 µM
- GI50 [9]: 3.88 µM
- TGI [9]: 14.2 µM
- GI50 [10]: 2.8 µM
- TGI [10]: 9.22 µM
- GI50 [11]: 1.76 µM
- TGI [11]: 3.23 µM
- GI50 [12]: 5.59 µM
- TGI [12]: 19.6 µM
- GI50 [13]: 1.77 µM
- TGI [13]: 3.18 µM
- GI50 [14]: 1.63 µM
- TGI [14]: 3.03 µM
- GI50 [15]: 1.86 µM
- TGI [15]: 3.4 µM
- GI50 [16]: 2.12 µM
- TGI [16]: 5.47 µM
- GI50 [17]: 3.9 µM
- TGI [17]: 19.3 µM
- GI50 [18]: 12 µM
- TGI [18]: 25.3 µM
- GI50 [19]: 8.17 µM
- TGI [19]: 21.1 µM
- GI50 [20]: 7.32 µM
- TGI [20]: 23.4 µM
- GI50 [21]: 1.38 µM
- TGI [21]: 4.39 µM
- GI50 [22]: 3.33 µM
- TGI [22]: 16.1 µM
- GI50 [23]: 1.8 µM
- TGI [23]: 3.34 µM
- GI50 [24]: 1.62 µM
- TGI [24]: 3.06 µM
- GI50 [25]: 1.91 µM
- TGI [25]: 4.16 µM
- GI50 [26]: 2.78 µM
- TGI [26]: 12.4 µM
- GI50 [27]: 2.13 µM
- TGI [27]: 15 µM
- GI50 [28]: 3.07 µM
- TGI [28]: 11 µM
- GI50 [29]: 1.94 µM
- TGI [29]: 4.09 µM
- GI50 [30]: 15.2 µM
- TGI [30]: 34.4 µM
- GI50 [31]: 14.8 µM
- TGI [31]: 28.8 µM
- GI50 [32]: 2.28 µM
- TGI [32]: 5.7 µM
- GI50 [33]: 3.42 µM
- TGI [33]: 14 µM
- GI50 [34]: 13.1 µM
- TGI [34]: 25.8 µM
- GI50 [35]: 2.62 µM
- TGI [35]: 7.32 µM
- GI50 [36]: 2.02 µM
- TGI [36]: 4.1 µM
- GI50 [37]: 16 µM
- TGI [37]: 30.5 µM
- GI50 [38]: 1.96 µM
- TGI [38]: 4.36 µM
- GI50 [39]: 1.99 µM
- TGI [39]: 4.61 µM
- GI50 [40]: 16.9 µM
- TGI [40]: 30.7 µM
- GI50 [41]: 5.67 µM
- TGI [41]: 18.5 µM
- GI50 [42]: 1.9 µM
- TGI [42]: 4.29 µM
- GI50 [43]: 15.1 µM
- TGI [43]: 34.3 µM
- GI50 [44]: 3.39 µM
- TGI [44]: 13.8 µM
- GI50 [45]: 16.5 µM
- TGI [45]: 35.4 µM
- GI50 [46]: 3.3 µM
- TGI [46]: 17.6 µM
- GI50 [47]: 4.69 µM
- TGI [47]: 20.1 µM
- GI50 [48]: 3.33 µM
- TGI [48]: 10.9 µM
- GI50 [49]: 1.85 µM
- TGI [49]: 4.66 µM
- GI50 [50]: 1.7 µM
- TGI [50]: 3.17 µM
- GI50 [51]: 2.9 µM
- TGI [51]: 9.88 µM
- GI50 [52]: 1.84 µM
- TGI [52]: 3.64 µM
- GI50 [53]: 1.98 µM
- TGI [53]: 4.2 µM
- GI50 [54]: 2.08 µM
- TGI [54]: 4.94 µM
- GI50 [55]: 3.44 µM
- TGI [55]: 13 µM
- GI50 [56]: 1.77 µM
- TGI [56]: 3.56 µM
- GI50 [57]: 2.05 µM
- TGI [57]: 4.08 µM
- GI50 [58]: 2.22 µM
- TGI [58]: 5.38 µM

— PubChem BioAssay (NCI)
